Drawing on US20230031406A1, “COMPOUNDS AND COMPOSITIONS FOR TREATING CONDITIONS ASSOCIATED WITH NLRP ACTIVITY” (Novartis AG, priority 2018, published 2023), this text covers IC50 for 15 compounds.

As a reminder, the IC50 is the point on the concentration scale where inhibition reaches its midpoint.

For the experiment, the system named is PMA-differentiated THP-1 cells. Briefly: hTHP-1 assay containing 10% fetal bovine serum (IL-1β production, Tables B5 and B6). In kind it is cell-based, human. On the procedure: The following protocol is suitable for testing the activity of the compounds disclosed herein. Procedure 1: IL-1β Production in PMA-Differentiated THP-1 Cells Stimulated with Gramicidin.
THP-1 cells were purchased from the American Type Culture Collection and sub-cultured according to instructions from the supplier. Cells were cultured in complete RPMI 1640 (containing 10% heat inactivated FBS, penicillin (100 units/ml) and streptomycin (100 μg/ml)), and maintained in log phase prior to experimental setup. Prior to the experiment, compounds were dissolved in dimethyl sulfoxide (DMSO) to generate a 30 mM stock. The compound stock was first pre-diluted in DMSO to 3, 0.34, 0.042 and 0.0083 mM intermediate concentrations and subsequently spotted using Echo550 liquid handler into an empty 384-well assay plate to achieve desired final concentration (e.g. 100, 33, 11, 3.7, 1.2, 0.41, 0.14, 0.046, 0.015, 0.0051, 0.0017 μM). DMSO was backfilled in the plate to achieve a final DMSO assay concentration of 0.37%. The plate was then sealed and stored at room temperature until required.
THP-1 cells were treated with PMA (Phorbol 12-myristate 13-acetate) (20 ng/ml) for 16-18 hours. On the day of the experiment the media was removed and adherent cells were detached with trypsin for 5 minutes. […] The cells were plated in the 384-well assay plate containing the spotted compounds at a density of 50,000 cells/well (final assay volume 50 μl). Cells were incubated with compounds for 1 hour and then stimulated with gramicidin (5 μM) (Enzo) for 2 hours. Plates were then centrifuged at 340 g for 5 min. Cell free supernatant (40 μL) was collected using a 96—CHannel PlateMaster (Gilson) and the production of IL-1β was evaluated by HTRF (cisbio). The plates were incubated for 18 h at 4° C. and read using the preset HTRF program (donor emission at 620 nm, acceptor emission at 668 nm) of the SpectraMax i3x spectrophotometer (Molecular Devices, software SoftMax 6). A vehicle only control and a dose titration of CRID3 (100-0.0017 μM) were run concurrently with each experiment.
Procedure 2: IL-1β Production in PMA-Differentiated THP-1 Cells Stimulated with Gramicidin.
THP-1 cells were purchased from the American Type Culture Collection and sub-cultured according to instructions from the supplier. Prior to experiments, cells were cultured in complete RPMI 1640 (containing 10% heat inactivated FBS, penicillin (100 units/ml) and streptomycin (100 μg/ml)), and maintained in log phase prior to experimental setup. Prior to the experiment THP-1 were treated with PMA (Phorbol 12-myristate 13-acetate) (20 ng/ml) for 16-18 hours. Compounds were dissolved in dimethyl sulfoxide (DMSO) to generate a 30mM stock. On the day of the experiment the media was removed and adherent cells were detached with trypsin for 5 minutes. […] The cells were plated in a 384-well plate at a density of 50,000 cells/well (final assay volume […]). Compounds were first dissolved in assay medium to obtain a 5× top concentration of 500 μM. 10 step dilutions (1:3) were then undertaken in assay medium containing 1.67% DMSO. 5× compound solutions were added to the culture medium to achieve desired final concentration (e.g. 100, 33, 11, 3.7, 1.2, 0.41, 0.14, 0.046, 0.015, 0.0051, 0.0017 μM). Final DMSO concentration was at 0.37%. Cells were incubated with compounds for 1 hour and then stimulated with gramicidin (5 μM) (Enzo) for 2 hours. Plates were then centrifuged at 340 g for 5 min. Cell free supernatant (40 μL) was collected using a 96—CHannel PlateMaster (Gilson) and the production of IL-1β was evaluated by HTRF (cisbio). A vehicle only control and a dose titration of CRID3 (100-0.0017 μM) were run concurrently with each experiment.
Tables B1, B2, B3, and B4 show the biological activity of compounds in hTHP-1 assay containing 2% fetal bovine serum. […] Key: <0.008 μM=“++++++”; ≥0.008 and <0.04 μM=“+++++”; >0.04 and <0.2 μM=“++++”; ≥0.2 and <1 μM=“+++”; ≥1 and <5 μM=“++”; ≥5 and <30 μM=“+”. […]

The mark [1] stands for this setting: Homo sapiens, THP-1, read-out: hTHP-1 IC50 in 10% FBS, hTHP-1 assay containing 10% fetal bovine serum, Table B6.
The mark [2] stands for this setting: read-out: hTHP-1 IC50 in 10% FBS, hTHP-1 assay containing 10% fetal bovine serum, Table B6.
Where [3] appears, read: Homo sapiens, THP-1, read-out: hTHP-1 IC50 in 10% FBS, hTHP-1 assay containing 10% fetal bovine serum, Table B5.

SMILES strings stand for the structures. Like-named read-outs stand apart in the source and are kept apart here.

For the compound `NS(=O)(=NC(=O)Nc1c2c(nc3c1CCC31CC1)CCC2)c1nn(C2CC2)cc1F` (single isomer, unassigned) [Example 865, (R) or (S)-1-cyclopropyl-4-fluoro-N′-((1′,5′,6′,7′-tetrahydro-2′H-spiro[cyclopropan-1,3′-dicyclopenta[b,e]pyridin]-8′-yl)carbamoyl)-1H-pyrazole-3-sulfonimidamide], the IC50 under setting [1] is 0.04 to 0.2 µM.
As for `CC(C)(O)c1csc(S(N)(=O)=NC(=O)Nc2c3c(nc(C(F)(F)F)c2C2CC2)CCC3)c1F` (single isomer, unassigned) [Compound 1105b, (S) or (R)-N′-((3-cyclopropyl-2-(trifluoromethyl)-6,7-dihydro-5H-cyclopenta[b]pyridin-4-yl)carbamoyl)-3-fluoro-4-(2-hydroxypropan-2-yl)thiophene-2-sulfonimidamide], where the note is “read-out: hTHP-1 IC50 in 10% FBS, hTHP-1 assay containing 10% fetal bovine serum, Table B5, listed as 835”, the IC50 lay in the range of 0.2 to 1 µM.
As for `NS(=O)(=NC(=O)Nc1c2c(nc3c1CCC31CC1)CCC2)c1nn(C2CC2)cc1F` (single isomer, unassigned) [Example 866, (S) or (R)-1-cyclopropyl-4-fluoro-N′-((1′,5′,6′,7′-tetrahydro-2′H-spiro[cyclopropan-1,3′-dicyclopenta[b,e]pyridin]-8′-yl)carbamoyl)-1H-pyrazole-3-sulfonimidamide], the IC50 under setting [2] was 0.04 to 0.2 µM.
Regarding `C[C@@H]1CCc2c1nc1c(c2NC(=O)N=S(N)(=O)c2nn(C(C)(F)F)cc2F)CCC1` (stereo partly drawn) [Compound 1111, 1-(1,1-Difluoroethyl)-4-fluoro-N′-(((R)-3-methyl-1,2,3,5,6,7-hexahydrodicyclopenta [b,e]pyridin-8-yl)carbamoyl)-1H-pyrazole-3-sulfonimidamide], under setting [3], the half-inhibitory concentration (IC50) lay within 0.008 to 0.04 µM.
Turning to `C[C@@H]1CCc2c1nc1c(c2NC(=O)N=S(N)(=O)c2scc(C(C)(C)O)c2F)CCC1` (single isomer, unassigned) [Compound 1109a, (R) or (S)-3-fluoro-4-(2-hydroxypropan-2-yl)-N′-(((R)-3-methyl-1,2,3,5,6,7-hexahydrodicyclopenta [b,e]pyridin-8-yl)carbamoyl) thiophene-2-sulfonimidamide], under “read-out: hTHP-1 IC50 in 10% FBS, hTHP-1 assay containing 10% fetal bovine serum, Table B5, listed as 842”, the half-maximal inhibitory concentration (IC50) was in the range of 0.008 to 0.04 µM.
Turning to `CC(C)(O)c1csc(S(N)(=O)=NC(=O)Nc2c3c(nc(C4CC4)c2C2CC2)CCC3)c1F` (single isomer, unassigned) [Compound 1106a, (R) or (S)-N′-((2,3-dicyclopropyl-6,7-dihydro-5H-cyclopenta[b]pyridin-4-yl)carbamoyl)-3-fluoro-4-(2-hydroxypropan-2-yl)thiophene-2-sulfonimidamide], the IC50 (read-out: hTHP-1 IC50 in 10% FBS, hTHP-1 assay containing 10% fetal bovine serum, Table B5, listed as 830) lay in the range of 0.04 to 0.2 µM.
Regarding `C[C@@H]1CCc2c1nc1c(c2NC(=O)N=S(N)(=O)c2nn(C3CC3)cc2F)CCC1` (single isomer, unassigned) [Example 868, (S) or (R)-1-cyclopropyl-4-fluoro-N′-(((R)-3-methyl-1,2,3,5,6,7-hexahydrodicyclopenta[b,e]pyridin-8-yl)carbamoyl)-1H-pyrazole-3-sulfonimidamide], the IC50 under setting [2] was 0.2 to 1 µM.
Take `Cc1c(C(F)(F)F)nc2c(c1NC(=O)N=S(N)(=O)c1scc(C(C)(C)O)c1F)CCC2` (stereo not drawn) [Compound 1108, 3-Fluoro-4-(2-hydroxy-propan-2-yl)-N′-((3-methyl-2-(trifluoromethyl)-6,7-dihydro-5H-cyclopenta[b]pyridin-4-yl)carbamoyl)thiophene-2-sulfonimidamide]: under setting [3], the IC50 was in the range of 0.04 to 0.2 µM.
Consider `NS(=O)(=NC(=O)Nc1c2c(nc3c1CCC31CC1)CCC2)c1ccn(C2CC2)n1` (stereo not drawn) [Example 861, 1-Cyclopropyl-N′-((1′,5′,6′,7′-tetrahydro-2′H-spiro[cyclopropane-1,3′-dicyclopenta[b,e]pyridin]-8′-yl)carbamoyl)-1H-pyrazole-3-sulfonimidamide], for which, under setting [1], the IC50 was in the range of 0.04 to 0.2 µM.
Regarding `Cc1c(C(F)(F)F)nc2c(c1NC(=O)N=S(N)(=O)c1scc(C(C)(C)O)c1F)CCC2` (single isomer, unassigned) [Compound 1108a, (R) or (S)-3-fluoro-4-(2-hydroxypropan-2-yl)-N′-((3-methyl-2-(trifluoromethyl)-6,7-dihydro-5H-cyclopenta[b]pyridin-4-yl)carbamoyl)thiophene-2-sulfonimidamide], the IC50 (read-out: hTHP-1 IC50 in 10% FBS, hTHP-1 assay containing 10% fetal bovine serum, Table B5, listed as 840) fell in the range of 0.04 to 0.2 µM.
As to `CC(C)n1cc(F)c(S(N)(=O)=NC(=O)Nc2c3c(nc(C(F)(F)F)c2C2CC2)CCC3)n1` (single isomer, unassigned) [Compound 1104a, (R) or (S)-N′-((3-cyclopropyl-2-(trifluoromethyl)-6,7-dihydro-5H-cyclopenta[b]pyridin-4-yl)carbamoyl)-4-fluoro-1-isopropyl-1H-pyrazole-3-sulfonimidamide], the IC50 (read-out: hTHP-1 IC50 in 10% FBS, hTHP-1 assay containing 10% fetal bovine serum, Table B5, listed as 826) was 0.04 to 0.2 µM.
Regarding `CC(C)(O)c1csc(S(N)(=O)=NC(=O)Nc2c3c(nc(C(F)(F)F)c2C2CC2)CCC3)c1F` (stereo not drawn) [Compound 1105, N′-((3-cyclopropyl-2-(trifluoromethyl)-6,7-dihydro-5H-cyclopenta [b]pyridin-4-yl)carbamoyl)-3-fluoro-4-(2-hydroxypropan-2-yl) thiophene-2-sulfonimidamide], the IC50 under setting [3] was 0.04 to 0.2 µM.
Turning to `CC(C)(O)c1csc(S(N)(=O)=NC(=O)Nc2c3c(nc4c2CCC4)CCC3)c1F` (single isomer, unassigned) [Compound 1107a, (R) or (S)-3-fluoro-N′-((1,2,3,5,6,7-hexahydrodicyclopenta[b,e]pyridin-8-yl)carbamoyl)-4-(2-hydroxypropan-2-yl)thiophene-2-sulfonimidamide], the IC50 (read-out: hTHP-1 IC50 in 10% FBS, hTHP-1 assay containing 10% fetal bovine serum, Table B5, listed as 838) was in the range of 0.04 to 0.2 µM.
For `CCn1cc(F)c(S(N)(=O)=NC(=O)Nc2c(C)c(C(F)(F)F)nc3c2CC(C)C3)n1` (single isomer, unassigned) [Compound 1101d, (R, R) or (R, S)-N′-((3,6-dimethyl-2-(trifluoromethyl)-6,7-dihydro-5H-cyclopenta[b]pyridin-4-yl)carbamoyl)-1-ethyl-4-fluoro-1H-pyrazole-3-sulfonimidamide], the IC50 (read-out: hTHP-1 IC50 in 10% FBS, hTHP-1 assay containing 10% fetal bovine serum, Table B5, listed as 824) lay within 0.2 to 1 µM.
`CCn1cc(F)c(S(N)(=O)=NC(=O)Nc2c3c(nc(C)c2C(F)(F)F)CCC3)n1` (single isomer, unassigned) [Compound 1116a, (R) or (S)-1-ethyl-4-fluoro-N′-((2-methyl-3-(trifluoromethyl)-6,7-dihydro-5H-cyclopenta[b]pyridin-4-yl)carbamoyl)-1H-pyrazole-3-sulfonimidamide]: the IC50 (read-out: hTHP-1 IC50 in 10% FBS, hTHP-1 assay containing 10% fetal bovine serum, Table B5, listed as 848) lay within 0.008 to 0.04 µM.
